Source: patent publication US10844013B2, “Phenyl amino piperidine mTORC inhibitors and uses thereof” (Navitor Pharmaceuticals, Inc., priority 2016, dated 2020)
Where two headings read alike, the source gives them in different places.

What was measured:
Assay type in all cases: cell-based
[1] = tested on: pS6K1 (p-p70 S6 Kinase (Thr389)) in MCF-7 cells; assay: AlphaLISA Ultra pS6K1 assay; conditions: 2 hours compound incubation
Method in brief: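 MCF-7 cells seeded 20–24 h, medium refreshed 2 h, then treated 2 h with compound (0.5% DMSO final). Lysates probed for Thr389-phosphorylated p70 S6K by AlphaLISA Ultra, 2 h acceptor then 2 h donor bead incubation, read on a multimode reader.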

MCF-7 cells = assay: Radioactive glucose uptake in MCF-7 cells; conditions: Homo sapiens, MCF7, 3H-2DG uptake
Procedure: Example 157: Radioactive Glucose Uptake in MCF-7 Cells
Assay Protocol • 1. Seed approximately 12,000 MCF-7 cells cultured without insulin per well in 96-well plates (BIOCOAT, #356690) and let the cells sit in hood for 30 min. (Cell culture medium: DMEM+10% FBS). • 2. Put the cell culture plates in TC incubator (5% CO2, 37° C.) and incubate overnight. • 3. Take out the cell plates and wash with prewarmed KRH buffer (37° C.) three times using BioTek plate washer. (KRH buffer preparation: 136 mM NaCl, 4.7 mM KCl, 1.25 mM MgCl2, 1.2 mM CaCl2), 20 mM HEPES, 0.1 mg/ml sodium pyruvate, 0.1% BSA, pH 7.4). • 4. Compound preparation and treatment: • a) Add 12 ul compound stock in 100% DMSO to the first column of Echo LDV plate • b) Serially dilute the compound solution in 100% DMSO (4 uL+8 uL DMSO) using Bravo for 9 doses • c) Dispense 350 nL compounds using Echo to the working plate. • d) i) Without compound preincubation condition, dispense 116 uL KRH buffer containing tritiated 2-deoxy-D-glucose (3H-2DG) and 2-deoxy-D-glucose (2DG) to the working plate and mix. • ii. With compound preincubation condition, dispense 110 uL KRH buffer only to the working plates and mix • e) Keep the compound working plate at 37° C. incubator until use • 5. Discard the KRH buffer (cells were kept in KRH buffer for 10-15 min before 2-DG addition) and transfer 100 uL compound working solution out to the cell culture plate using Bravo. Incubate for 20 mins at 37° C. (2DG final at 0.2 mM, 3H-2DG at 10 uCi/mL). • 6. Add prewarmed 50 uL KRH buffer (37° C.) containing 60 mM cold 2DG to the wells to stop the 2DG uptake using Multidrop combi • 7. Wash the cells with prewarmed PBS three times using BioTek plate washer • 8. Add 50 uL lysis buffer (0.1 M NaOH) into the assay plate to lyse the cells using Bravo and shake at 800 rpm for 30 min. • 9. Mix and transfer 20 uL lysate to a new white plate (Corning, #3610) and add 200 uL MicroScint-20 using Bravo • 10. Shake the plate at 1000 rpm for 30 min and count in a MicroBeta plate reader.

[2] = tested on: pAKT (p-Akt 1/2/3 (Ser473)) in MCF-7 cells; assay: AlphaLISA Ultra pAKT assay; conditions: Homo sapiens, MCF7, 2 hours compound incubation
Method in brief: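 AlphaLISA read-out (2 h acceptor-bead, then 2 h donor-bead incubation) on thawed lysates of MCF-7 cells exposed to compounds for 2 h in 0.5% DMSO. Cells had been plated 20-24 h and given fresh medium 2 h before dosing.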

SMILES	IC50 ([1]; Homo sapiens, MCF7, 2 h) [nM]	IC50 (MCF-7 cells) [nM]	IC50 [2] [nM]	IC50 ([1]; read-out: pS6K1 in MCF7: IC50) [nM]
Cc1cc(C)c(C(=O)N2CCN(c3ccccn3)C(CO)C2)cc1NC1CCN(c2ccccc2C#N)CC1 (single isomer, unassigned) [I-48, 2-[4-({5-[(3R or 3S)-3-(hydroxymethyl)-4-(pyridin-2-yl)piperazine-1-carbonyl]-2,4-dimethylphenyl}amino)piperidin-1-yl]benzonitrile]	10 to 1000	10 to 1000	> 10000	
Cc1cc(C)c(C(=O)N2CCN(c3ccccc3S(C)(=N)=O)CC2)cc1NC1CCN(c2ccccc2C#N)CC1 (single isomer, unassigned) [I-49, 2-(4-{[5-(4-{2-[(S or R)-imino(methyl)oxo-λ^6-sulfanyl]phenyl}piperazine-1-carbonyl)-2,4-dimethylphenyl]amino}piperidin-1-yl)benzonitrile]		10 to 1000	> 10000	10 to 1000
Cc1cc(C)c(C(=O)N2CCN(c3ccccc3C#N)[C@H](CO)C2)cc1NC1CCN(c2ccccc2C#N)CC1 (single isomer, unassigned) [I-79, 2-[4-({5-[(3S or 3R)-4-(2-Cyanophenyl)-3-(hydroxymethyl)piperazine-1-carbonyl]-2,4-dimethylphenyl}amino)piperidin-1-yl]benzonitrile]	10 to 1000	10 to 1000	> 10000	
Cc1cc(C)c(C(=O)N2CCN(c3cccc(F)c3[S@@](C)(=N)=O)CC2)cc1NC1CCN(c2ccccc2C#N)CC1 (single isomer, unassigned) [I-88]	10 to 1000	10 to 1000	> 10000	
Cc1cc(C)c(N(CCO)C2CCN(c3ccccc3C#N)CC2)cc1C(=O)N1CCN(c2ccccc2S(N)(=O)=O)CC1 [I-1, 2-(4-(5-((1-(2-Cyanophenyl)piperidin-4-yl)(2-hydroxyethyl)amino)-2,4-dimethylbenzoyl)piperazin-1-yl)benzenesulfonamide]	10 to 1000	10 to 1000	> 10000	
Cc1cc(C)c(C(=O)N2CCN(c3cccnc3S(N)(=O)=O)CC2)c(C)c1NC1CCN(c2ccccc2C#N)CC1 [I-2, 3-(4-(3-(1-(2-Cyanophenyl)piperidin-4-ylamino)-2,4,6-trimethylbenzoyl)piperazin-1-yl)pyridine-2-sulfonamide]	10 to 1000	10 to 1000	> 10000	
Cc1cc(C)c(C(=O)N2CCN(c3cccnc3S(N)(=O)=O)CC2)cc1NC1CCN(c2ccccc2C#N)CC1 [I-3, 3-(4-(5-(1-(2-Cyanophenyl)piperidin-4-ylamino)-2,4-dimethylbenzoyl)piperazin-1-yl)pyridine-2-sulfonamide]	10 to 1000	10 to 1000	> 10000	
Cc1cc(C)c(C(=O)N2CCN(c3cccc(S(N)(=O)=O)c3)CC2)cc1NC1CCN(c2ccccc2Cl)CC1 [I-4, 3-(4-(5-(1-(2-Chlorophenyl)piperidin-4-ylamino)-2,4-dimethylbenzoyl)piperazin-1-yl)benzenesulfonamide]	1000 to 3000	> 10000	> 10000	
Cc1cc(C)c(C(=O)N2CCN[C@@H](CO)C2)cc1NC1CCN(c2ccccc2C#N)CC1 [I-6, (R)-2-(4-(5-(3-(Hydroxymethyl)piperazine-1-carbonyl)-2,4-dimethylphenylamino)piperidin-1-yl)benzonitrile]	> 10000	> 10000	> 10000	
Cc1nc(C)c(C(=O)N2CCN(c3ccccc3S(N)(=O)=O)CC2)cc1NC1CCN(c2ccccc2C#N)CC1 [I-12, 2-(4-(5-(1-(2-Cyanophenyl)piperidin-4-ylamino)-2,6-dimethylnicotinoyl)piperazin-1-yl)benzenesulfonamide]	> 10000	> 10000	> 10000	
Cc1cc(C)c(C(=O)N2CCN(c3cccc(F)c3S(N)(=O)=O)CC2)c(C)c1NC1CCN(c2ccccc2C#N)CC1 [I-14, 2-(4-(3-(1-(2-Cyanophenyl)piperidin-4-ylamino)-2,4,6-trimethylbenzoyl)piperazin-1-yl)-6-fluorobenzenesulfonamide]	10 to 1000	10 to 1000	> 10000	
Cc1cc(C)c(C(=O)N2CCN(c3ncccc3S(N)(=O)=O)CC2)c(C)c1NC1CCN(c2ccccc2C#N)CC1 [I-15, 2-(4-(3-(1-(2-Cyanophenyl)piperidin-4-ylamino)-2,4,6-trimethylbenzoyl)piperazin-1-yl)pyridine-3-sulfonamide]	10 to 1000	10 to 1000	> 10000	
Cc1ccc(NC2CCN(c3ccccc3C#N)CC2)cc1C(=O)N1CCN(c2ccccc2S(N)(=O)=O)CC1 [I-22, 2-(4-(5-(1-(2-Cyanophenyl)piperidin-4-ylamino)-2-methylbenzoyl)piperazin-1-yl)benzenesulfonamide]	3000 to 5000	3000 to 5000	> 10000	
Cc1cc(C)c(C(=O)N2CCN(c3ncccc3S(N)(=O)=O)CC2)nc1NC1CCN(c2ccccc2C#N)CC1 [I-25, 2-(4-(6-(1-(2-Cyanophenyl)piperidin-4-ylamino)-3,5-dimethylpicolinoyl)piperazin-1-yl)pyridine-3-sulfonamide]	10 to 1000	10 to 1000	> 10000	
Cc1cc(C)c(C(=O)N2CCN(c3ccccc3S(N)(=O)=O)C[C@@H]2C)nc1NC1CCN(c2ccccc2C#N)CC1 [I-26, (S)-2-(4-(6-(1-(2-Cyanophenyl)piperidin-4-ylamino)-3,5-dimethylpicolinoyl)-3-methylpiperazin-1-yl)benzenesulfonamide]	10 to 1000	10 to 1000	> 10000	
Cc1cc(C)c(C(=O)N2CCN(c3ccccc3S(N)(=O)=O)CC2)cc1NC1CCN(c2ccccc2C#N)CC1C (stereo not drawn) [I-43, 2-(4-(5-(1-(2-Cyanophenyl)-3-methylpiperidin-4-ylamino)-2,4-dimethylbenzoyl)piperazin-1-yl)benzenesulfonamide]	10 to 1000	10 to 1000	> 10000	
Cc1cc(C)c(C(=O)N2CCN(c3cncc4cn[nH]c34)CC2)cc1NC1CCN(c2ccccc2C#N)CC1 [I-44, 2-(4-(5-(4-(1H-Pyrazolo[4,3-c]pyridin-7-yl)piperazine-1-carbonyl)-2,4-dimethylphenylamino)piperidin-1-yl)benzonitrile]	10 to 1000	10 to 1000	> 10000	
Cc1cc(C)c(C(=O)N2CCN(c3ccccn3)[C@H](C)C2)cc1NC1CCN(c2ccccc2C#N)CC1 [I-45, (R)-2-(4-(2,4-Dimethyl-5-(3-methyl-4-(pyridin-2-yl)piperazine-1-carbonyl)phenylamino)piperidin-1-yl) benzonitrile]	10 to 1000	10 to 1000	> 10000	
Cc1cc(C)c(C(=O)N2CCN(c3ncccc3S(N)(=O)=O)CC2)cc1NC1CCN(c2ccccc2C#N)CC1 [I-60]	1000 to 3000	10 to 1000	> 10000	
Cc1cc(C)c(C(=O)N2CCN(c3cccc4c3NC(=O)C4)CC2)cc1NC1CCN(c2ccccc2C#N)CC1 [I-61, 2-(4-(2,4-Dimethyl-5-(4-(2-oxoindolin-7-yl)piperazine-1-carbonyl)phenylamino)piperidin-1-yl)benzonitrile]	10 to 1000	10 to 1000	> 10000	
Cc1cc(C)c(C(=O)N2CCN(c3cccc(F)c3)C(CO)C2)cc1NC1CCN(c2ccccc2C#N)CC1 (stereo not drawn) [I-75, 2-[4-({5-[4-(3-Fluorophenyl)-3-(hydroxymethyl)piperazine-1-carbonyl]-2,4-dimethylphenyl}amino)piperidin-1-yl]benzonitrile]	10 to 1000	10 to 1000	> 10000	
Cc1cc(C)c(C(=O)N2CCN(c3nnnn3C)[C@H](CO)C2)cc1NC1CCN(c2ccccc2C#N)CC1 [I-91, (S)-2-(4-(5-(3-(Hydroxymethyl)-4-(1-methyl-1H-tetrazol-5-yl)piperazine-1-carbonyl)-2,4-dimethylphenylamino)piperidin-1-yl) benzonitrile]	5000 to 10000	1000 to 3000	> 10000	
